Patent US20250171438A1 (Agios Pharmaceuticals, Inc., priority 2022, published 2025)

target: T1, human PAH with the R408W mutation (Homo sapiens, UniProt P00439, R408W); assay: Cell Based Phenylalanine Flux Assay; settings: A375 cells expressing human R408W PAH; 24 hrs compound incubation; 13C-Tyrosine by LC-MS; average where tested multiple times; read-out: AC50
T1 construct: expressed in transfected cells
T1 sequence (P00439 1-452 R408W): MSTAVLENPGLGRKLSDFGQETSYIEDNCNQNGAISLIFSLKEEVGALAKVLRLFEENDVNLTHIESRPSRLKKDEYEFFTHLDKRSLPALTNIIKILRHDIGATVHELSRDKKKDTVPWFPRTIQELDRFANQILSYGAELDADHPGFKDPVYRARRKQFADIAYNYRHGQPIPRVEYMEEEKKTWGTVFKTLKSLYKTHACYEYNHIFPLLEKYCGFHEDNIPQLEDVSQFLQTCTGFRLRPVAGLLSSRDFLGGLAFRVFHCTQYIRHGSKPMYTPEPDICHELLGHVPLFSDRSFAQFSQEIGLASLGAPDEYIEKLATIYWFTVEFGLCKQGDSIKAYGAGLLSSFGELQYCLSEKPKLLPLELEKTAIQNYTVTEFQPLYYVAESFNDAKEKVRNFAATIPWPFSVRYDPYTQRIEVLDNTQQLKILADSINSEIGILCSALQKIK

Structure (SMILES)	AC50 [nM]
Cc1ncoc1C(=O)N1CCc2[nH]cnc2[C@H]1c1nc2ccccc2[nH]1 [Example 993, (S)-(4-(1H-benzo[d]imidazol-2-yl)-6,7-dihydro-1H-imidazo[4,5-c]pyridin-5(4H)-yl)(4-methyloxazol-5-yl)methanone]	< 500
O=C(c1ocnc1C(F)(F)F)N1CCc2[nH]cnc2[C@H]1c1nc2ccccc2[nH]1 [Example 994, (S)-(4-(1H-benzo[d]imidazol-2-yl)-6,7-dihydro-1H-imidazo[4,5-c]pyridin-5(4H)-yl)(4-(trifluoromethyl)oxazol-5-yl)methanone]	< 500
O=C(c1oc(-c2ccccn2)nc1C1CC1)N1CCc2[nH]cnc2[C@H]1c1nc2ccccc2[nH]1 [Example 995, (S)-(4-(1H-benzo[d]imidazol-2-yl)-6,7-dihydro-1H-imidazo[4,5-c]pyridin-5(4H)-yl)(4-cyclopropyl-2-(pyridin-2-yl)oxazol-5-yl)methanone]	500 to 1000
O=C(CCc1ncc(Cl)s1)N1CCc2[nH]cnc2[C@H]1c1nc2ccccc2[nH]1 [Example 996, (S)-1-(4-(1H-benzo[d]imidazol-2-yl)-1,4,6,7-tetrahydro-5H-imidazo[4,5-c]pyridin-5-yl)-3-(5-chlorothiazol-2-yl)propan-1-one]	1000 to 5000
O=C(c1cnn2ccc(Br)cc12)N1CCc2[nH]cnc2[C@H]1c1nc2ccc(Br)cc2[nH]1 [Example 997, (S)-(4-(6-bromo-1H-benzo[d]imidazol-2-yl)-6,7-dihydro-1H-imidazo[4,5-c]pyridin-5(4H)-yl)(5-bromopyrazolo[1,5-a]pyridin-3-yl)methanone]	1000 to 5000
O=C(c1cnn2ccc(Br)cc12)N1CCc2[nH]cnc2[C@@H]1c1nc2ccc(Br)cc2[nH]1 [Example 998, (R)-(4-(6-bromo-1H-benzo[d]imidazol-2-yl)-6,7-dihydro-1H-imidazo[4,5-c]pyridin-5(4H)-yl)(5-bromopyrazolo[1,5-a]pyridin-3-yl)methanone]	> 5000
O=C(c1nc2ccccc2o1)N1CCc2[nH]cnc2[C@H]1c1nc2ccccc2[nH]1 [Example 999, (S)-(4-(1H-benzo[d]imidazol-2-yl)-6,7-dihydro-1H-imidazo[4,5-c]pyridin-5(4H)-yl)(benzo[d]oxazol-2-yl)methanone]	1000 to 5000
O=C(CC1CC1)N1CCc2[nH]cnc2[C@@H]1c1nc2ccccc2[nH]1 [Example 1000, (R)-1-(4-(1H-benzo[d]imidazol-2-yl)-6,7-dihydro-1H-imidazo[4,5-c]pyridin-5(4H)-yl)-2-cyclopropylethanone]	1000 to 5000
O=C(c1nc2ccccc2s1)N1CCc2[nH]cnc2[C@H]1c1nc2ccccc2s1 [Example 1001, (S)-benzo[d]thiazol-2-yl(4-(benzo[d]thiazol-2-yl)-6,7-dihydro-1H-imidazo[4,5-c]pyridin-5(4H)-yl)methanone]	500 to 1000
O=C(c1nc2ccccc2s1)N1CCc2[nH]cnc2[C@@H]1c1nc2ccccc2s1 [Example 1002, (R)-benzo[d]thiazol-2-yl(4-(benzo[d]thiazol-2-yl)-6,7-dihydro-1H-imidazo[4,5-c]pyridin-5(4H)-yl)methanone]	1000 to 5000
O=C(CCc1nccs1)N1CCc2[nH]cnc2[C@H]1c1nc2ccccc2s1 [Example 1003]	500 to 1000
O=C(CCc1nccs1)N1CCc2nc[nH]c2[C@@H]1c1nc2ccccc2s1 [Example 1004, (R)-1-(4-(benzo[d]thiazol-2-yl)-6,7-dihydro-3H-imidazo[4,5-c]pyridin-5(4H)-yl)-3-(thiazol-2-yl)propan-1-one]	1000 to 5000
O=C(CCc1ccc(F)cc1)N1CCc2[nH]cnc2[C@H]1c1nc2ccccc2s1 [Example 1005]	500 to 1000
O=C(CCc1ccc(F)cc1)N1CCc2[nH]cnc2[C@@H]1c1nc2ccccc2s1 [Example 1006, (R)-1-(4-(benzo[d]thiazol-2-yl)-6,7-dihydro-1H-imidazo[4,5-c]pyridin-5(4H)-yl)-3-(4-fluorophenyl)propan-1-one]	> 5000
O=C(c1nccs1)N1CCc2[nH]cnc2[C@H]1c1nc2ccccc2s1 [Example 1007]	< 500
O=C(c1nccs1)N1CCc2[nH]cnc2[C@@H]1c1nc2ccccc2s1 [Example 1008, (R)-(4-(benzo[d]thiazol-2-yl)-6,7-dihydro-1H-imidazo[4,5-c]pyridin-5(4H)-yl)(thiazol-2-yl)methanone]	> 5000
O=C(c1cnn2ccccc12)N1CCc2[nH]cnc2[C@H]1c1nc2ccccc2s1 [Example 1009]	< 500
O=C(c1cnn2ccccc12)N1CCc2[nH]cnc2[C@@H]1c1nc2ccccc2s1 [Example 1010, (R)-(4-(benzo[d]thiazol-2-yl)-6,7-dihydro-1H-imidazo[4,5-c]pyridin-5(4H)-yl)(pyrazolo[1,5-a]pyridin-3-yl)methanone]	1000 to 5000
COc1cccc(/C=C/C(=O)N2CCc3[nH]cnc3[C@H]2c2nc3ccccc3s2)c1 [Example 1011]	500 to 1000
COc1cccc(/C=C/C(=O)N2CCc3[nH]cnc3[C@@H]2c2nc3ccccc3s2)c1 [Example 1012, (R,E)-1-(4-(benzo[d]thiazol-2-yl)-6,7-dihydro-1H-imidazo[4,5-c]pyridin-5(4H)-yl)-3-(3-methoxyphenyl)prop-2-en-1-one]	> 5000
COc1cccc(CCCC(=O)N2CCc3[nH]cnc3[C@H]2c2nc3ccccc3s2)c1 [Example 1013]	500 to 1000
COc1cccc(CCCC(=O)N2CCc3[nH]cnc3[C@@H]2c2nc3ccccc3s2)c1 [Example 1014, (R)-1-(4-(benzo[d]thiazol-2-yl)-6,7-dihydro-1H-imidazo[4,5-c]pyridin-5(4H)-yl)-4-(3-methoxyphenyl)butan-1-one]	> 5000
O=C(CCC1CCCC1)N1CCc2[nH]cnc2[C@H]1c1nc2ccccc2s1 [Example 1015]	500 to 1000

The next lines start with the values.

AC50 [nM]	Structure (SMILES)
1000 to 5000	O=C(CCC1CCCC1)N1CCc2[nH]cnc2[C@@H]1c1nc2ccccc2s1 [Example 1016, (R)-1-(4-(benzo[d]thiazol-2-yl)-6,7-dihydro-1H-imidazo[4,5-c]pyridin-5(4H)-yl)-3-cyclopentylpropan-1-one]
500 to 1000	Cc1nnc(CCC(=O)N2CCc3[nH]cnc3[C@H]2c2nc3ccccc3s2)s1 [Example 1019]
> 5000	Cc1nnc(CCC(=O)N2CCc3[nH]cnc3[C@@H]2c2nc3ccccc3s2)s1 [Example 1020, (R)-1-(4-(benzo[d]thiazol-2-yl)-6,7-dihydro-1H-imidazo[4,5-c]pyridin-5(4H)-yl)-3-(5-methyl-1,3,4-thiadiazol-2-yl)propan-1-one]
< 500	O=C(CCC1CC1)N1CCc2[nH]cnc2[C@H]1c1nc2ccccc2s1 [Example 1021]
1000 to 5000	O=C(CCC1CC1)N1CCc2[nH]cnc2[C@@H]1c1nc2ccccc2s1 [Example 1022, (R)-1-(4-(benzo[d]thiazol-2-yl)-6,7-dihydro-1H-imidazo[4,5-c]pyridin-5(4H)-yl)-3-cyclopropylpropan-1-one]
500 to 1000	O=C(CCc1nc(Cl)cs1)N1CCc2[nH]cnc2[C@H]1c1nc2ccccc2s1 [Example 1023]
> 5000	O=C(CCc1nc(Cl)cs1)N1CCc2[nH]cnc2[C@@H]1c1nc2ccccc2s1 [Example 1024, (R)-1-(4-(benzo[d]thiazol-2-yl)-6,7-dihydro-1H-imidazo[4,5-c]pyridin-5(4H)-yl)-3-(4-chlorothiazol-2-yl)propan-1-one]
1000 to 5000	O=C(CCc1ncc(Cl)s1)N1CCc2[nH]cnc2[C@H]1c1nc2ccccc2s1 [Example 1025]
1000 to 5000	O=C(CCc1ncc(Cl)s1)N1CCc2[nH]cnc2[C@@H]1c1nc2ccccc2s1 [Example 1026, (R)-1-(4-(benzo[d]thiazol-2-yl)-6,7-dihydro-1H-imidazo[4,5-c]pyridin-5(4H)-yl)-3-(5-chlorothiazol-2-yl)propan-1-one]
500 to 1000	O=C(c1ncn2ccccc12)N1CCc2[nH]cnc2[C@H]1c1nc2ccccc2s1 [Example 1027]
> 5000	O=C(c1ncn2ccccc12)N1CCc2[nH]cnc2[C@@H]1c1nc2ccccc2s1 [Example 1028, (R)-(4-(benzo[d]thiazol-2-yl)-6,7-dihydro-1H-imidazo[4,5-c]pyridin-5(4H)-yl)(imidazo[1,5-a]pyridin-1-yl)methanone]
500 to 1000	O=C(CCc1nccs1)N1CCc2[nH]cnc2[C@H]1c1nc2ccc(F)cc2s1 [Example 1029, (S)-1-(4-(6-fluorobenzo[d]thiazol-2-yl)-6,7-dihydro-1H-imidazo[4,5-c]pyridin-5(4H)-yl)-3-(thiazol-2-yl)propan-1-one]
> 5000	O=C(CCc1nccs1)N1CCc2[nH]cnc2[C@@H]1c1nc2ccc(F)cc2s1 [Example 1030, (R)-1-(4-(6-fluorobenzo[d]thiazol-2-yl)-6,7-dihydro-1H-imidazo[4,5-c]pyridin-5(4H)-yl)-3-(thiazol-2-yl)propan-1-one]
500 to 1000	Cc1cnc(CCC(=O)N2CCc3[nH]cnc3[C@H]2c2nc3ccccc3s2)s1 [Example 1031]
> 5000	Cc1cnc(CCC(=O)N2CCc3[nH]cnc3[C@@H]2c2nc3ccccc3s2)s1 [Example 1032, (R)-1-(4-(benzo[d]thiazol-2-yl)-6,7-dihydro-1H-imidazo[4,5-c]pyridin-5(4H)-yl)-3-(5-methylthiazol-2-yl)propan-1-one]
500 to 1000	O=C(Cc1nc(C(F)(F)F)cs1)N1CCc2[nH]cnc2[C@H]1c1nc2ccccc2s1 [Example 1033]
